# Assay results from PMC5316400, “Validation of precision-cut liver slices to study drug-induced cholestasis: a transcriptomics approach” (Archives of Toxicology, 2016).
# Legend:
# [1] = tested on: Genes involved in hepatic cholestasis pathway; assay: Microarray gene expression in human PCLS exposed to cholestatic drugs: hepatic cholestasis pathway genes; conditions: 30 μM; 24 h; 60 μM bile acid mix
# Experimental: (§1) Precision-cut liver slices of 5 mm diameter and 250 μm thickness were prepared (de Graaf et al. [2010]). At this thickness, full penetration of substrates has been shown. PCLS were made using the Krumdieck tissue slicer (Alabama R&D, Munford, AL, USA) in ice-cold Krebs buffer at pH 7.42, enriched with glucose to a final concentration of 25 mM, saturated with carbogen (95 % O2/5 % CO2). Immediately after the slices were made, they were placed in ice-cold University of Wisconsin organ preservation solution (UW, Dupont Critical Care, Waukegan, IL, USA) and stored on ice until the beginning of the experiment. Slices were pre-incubated individually in 12-well plates in 1.3 ml of Williams Medium E with glutamax-1 (Gibco, Invitrogen, Paisley, Scotland) supplemented with 25 mM D-glucose and 50 μg/ml gentamycin (Gibco, Invitrogen, Paisley, Scotland). In the incubator (Sanyo CO2/O2 Incubator, PANASONIC, Secaucus, NJ, USA), the plates were gently shaken (90 times/min) for 1 h under 80 % O2 and 5 % CO2 atmosphere at 37 °C. This pre-incubation allows the slices to restore their ATP levels. […] The plates were incubated under the same conditions for 24 h. All incubation conditions were carried out in triplicate. Each experiment was performed in slices of 6 different human livers (Table 1). Slices were harvested for ATP assay in 100 mM Tris buffer with 2 mM EDTA and for RNA isolation in RNAlater. The bile acid mix was added to the medium in order to create an environment similar to the physiological concentration in the portal vein. The composition of the serum bile acids was according to Scherer et al. ([2009]). Pilot experiments were performed to find out the non-toxic concentration of the bile acid mix.
# (§2) Maxwell® 16 LEV Total RNA purification kit (Promega, The Netherlands) with Maxwell® 16 LEV Instrument was used to isolate RNA from the samples. Immediately after isolation, the RNA quality was assessed by measuring the 260/280 and 260/230 ratios, and the concentration was measured with the ND-1000 spectrophotometer (Fisher Scientific, Landsmeer, The Netherlands). The quality (RIN value) and quantity of the RNA were determined by high-throughput Caliper GX LabChip RNA kit (Caliper).
# (§3) Ambion Illumina Total Prep RNA kit was used to transcribe 300 ng RNA to cRNA according to the manufacturer’s instructions. A total of 750 ng of cRNA was hybridized at 58 °C for 16 h to the Illumina HumanHT-12 v4 Expression BeadChips. BeadChips were scanned using Iscan software, and IDAT files were generated (Illumina, San Diego, CA, USA).
# (§4) GenomeStudio software (Illumina) was used to read the IDAT files and generate raw expression values. The ArrayAnalysis web service (www.arrayanalysis.org/) was used for further preprocessing the data, which uses lumi R package (Eijssen et al. [2013]). Raw gene expression data were background-corrected (bgAdjust), variance-stabilized (VST) and normalized by quantile normalization. After normalization, the data were corrected for batch differences owing to RNA isolation and hybridization using the ComBat method implemented in the swamp package in R (Lauss et al. [2013]). Differentially expressed genes in slices exposed to the cholestatic drugs in the presence of bile acids versus the slices exposed to vehicle (DMSO) in the presence of bile acids were identified using the unpaired moderated t test in the limma package (Ritchie et al. [2015]). Genes that are regulated with a criterion of fold change of 1.5 (≤ or ≥1.5), and FDR-corrected p value ≤0.05 (Benjamini and Hochberg method) were chosen for pathway analysis. To compare our data with the scarcely available human in vivo data, human in vivo late-stage cholestasis data were downloaded from the Gene Expression Omnibus database (GSE46960).
# [2] = tested on: Genes involved in the FXR pathway; assay: Microarray gene expression in human PCLS exposed to cholestatic drugs: FXR pathway genes; conditions: 30 μM; 24 h; 60 μM bile acid mix
# Experimental: as §1, §2, §3, §4
# [3] = tested on: Genes involved in unfolded protein response (UPR); assay: Microarray gene expression in human PCLS exposed to cholestatic drugs: unfolded protein response genes; assay type: cell-based; conditions: 30 μM; 24 h; 60 μM bile acid mix
# Experimental: as §1, §2, §3, §4
# [4] = adult patients, therapeutic dose, systemic blood; no reference given; cited from earlier work
# [5] = C max in systemic blood of adult patients after a therapeutic dose; conditions: highest toxic concentration tested in human PCLS vs C max in adult patients
# [6] = tested on: human precision-cut liver slices (PCLS); assay: Transcriptomics of human PCLS: differentially regulated genes; assay type: cell-based; conditions: fold change of 1.5 and adjusted p value 0.05, 24 h, 60 μM bile acid mix
# Experimental: as §1, §2, §3, §4
smiles,measurement,setting,value
"CN(C)CCCN1c2ccccc2Sc2ccc(Cl)cc21 [CP, chlorpromazine]",ABCB4 fold change,[1],−2.0
same,ABCB11 fold change,[1],−1.4
same,ABCC3 fold change,[1],−1.1
same,ABCG5 fold change,[1],−1.4
same,ABCG8 fold change,[1],−1.7
same,CYP8B1 fold change,[1],−2.3
same,CYP27A1 fold change,[1],−1.3
same,GCGR fold change,[1],−1.7
same,IL1B fold change,[1],−1.1
same,IL1RL1 fold change,[1],1.4
same,IL1RN fold change,[1],1.3
same,IRAK2 fold change,[1],1.2
same,JUN fold change,[1],1.5
same,NR0B2 fold change,[1],−1.6
same,NR1H3 fold change,[1],−1.2
same,NR1H4 fold change,[1],−1.2
same,PPRC1 fold change,[1],1.2
same,RXRA fold change,[1],−1.3
same,SLC22A7 fold change,[1],−2.6
same,TNFRSF1B fold change,[1],1.0
same,ABCB4 fold change,[2],−2.0
same,ABCB11 fold change,[2],−1.7
same,ABCG5 fold change,[2],−1.4
same,ABCG8 fold change,[2],−1.7
same,APOC2 fold change,[2],−1.4
same,APOC4 fold change,[2],−1.8
same,APOF fold change,[2],−1.9
same,BAAT fold change,[2],−1.5
same,C3 fold change,[2],−1.5
same,CYP8B1 fold change,[2],−2.3
same,CYP27A1 fold change,[2],−1.1
same,FASN fold change,[2],−1.4
same,FBP1 fold change,[2],−2.0
same,FETUB fold change,[2],−1.8
same,FGA fold change,[2],−1.7
same,ITIH4 fold change,[2],−1.4
same,KNG1 fold change,[2],−1.8
same,NR0B2 (SHP) fold change,[2],−1.3
same,NR1H3 (LXR) fold change,[2],−1.3
same,NR1H4 (FXR) fold change,[2],−1.4
same,PON1 fold change,[2],−1.9
same,RXRA fold change,[2],−1.1
same,SCARB1 fold change,[2],−1.6
same,SDC1 fold change,[2],−1.4
same,SERPINF2 fold change,[2],−1.5
same,SLC22A7 fold change,[2],−2.6
same,SLC51B fold change,[2],−1.9
same,SULT2A1 fold change,[2],−1.9
same,ATF4 fold change,[3],1.5
same,DDIT3 (CHOP) fold change,[3],1.2
same,DNAJB9 fold change,[3],1.0
same,ERN1 fold change,[3],1.0
same,HSPA9 fold change,[3],1.1
same,HSPH1 fold change,[3],1.0
same,INSIG1 fold change,[3],1.3
same,NFE2L2 fold change,[3],1.1
same,SYVN1 fold change,[3],1.0
same,Cmax,[4],420 nM
same,toxic concentration used in PCLS study relative to C max,[5],~ 70 × C max
same,Number of regulated genes,[6]; 10 μM,1
same,Number of regulated genes,[6]; 20 μM,2
same,Number of regulated genes,[6]; 30 μM,61
"C#C[C@]1(O)CC[C@H]2[C@@H]3CCc4cc(O)ccc4[C@H]3CC[C@@]21C [EE, ethinyl estradiol]",Cmax,[4],8.2 nM
same,Number of regulated genes,[6]; 25 μM,0
same,Number of regulated genes,[6]; 50 μM,5
same,Number of regulated genes,[6]; 75 μM,63
